The NIST ThermoML archive (doi:10.1016/j.fluid.2015.03.033)
Where “and” joins values, the source holds several entries; their conditions need not be identical. Equal entries are not always repeated.

Assays:
[1] = Liquid, Closed cell (Static) method
[2] = excess molar enthalpy (molar enthalpy of mixing); xn = mol fraction of the nth substance listed; conditions: 303.15 K, 100 kPa, Liquid, Calvet calorimetry

Cc1cnccn1 [2-methylpyrazine]
[1]
Conditions | vapor or sublimation pressure [kPa]
263.72 K | 0.109
273.47 K | 0.23
283.27 K | 0.457
293.24 K | 0.866
303.18 K | 1.563
313.12 K | 2.697
323.13 K | 4.476
333.11 K | 7.151
343.05 K | 11.03
353.03 K | 16.61
362.95 K | 24.08

Cc1cnccn1 [2-methylpyrazine] + C1CCCCC1
[2]
Conditions | excess molar enthalpy [kcal/mol]
x1 = 0.094 | 0.163
x1 = 0.153 | 0.234
x1 = 0.251 | 0.308
x1 = 0.381 | 0.356
x1 = 0.474 | 0.364
x1 = 0.566 | 0.36
x1 = 0.639 | 0.331
x1 = 0.766 | 0.242
x1 = 0.845 | 0.175

Cc1cnccn1 [2-methylpyrazine] + CCCCCCC
[2]
Conditions | excess molar enthalpy [kcal/mol]
x1 = 0.082 | 0.135
x1 = 0.175 | 0.257
x1 = 0.335 | 0.353
x1 = 0.411 | 0.369
x1 = 0.481 | 0.37
x1 = 0.523 | 0.369
x1 = 0.622 | 0.344
x1 = 0.704 | 0.298
x1 = 0.809 | 0.231
x1 = 0.877 | 0.167

Cc1cnccn1 [2-methylpyrazine] + Cc1ccccc1
[2]
Conditions | excess molar enthalpy [kcal/mol]
x1 = 0.156 | 0.00669
x1 = 0.256 | 0.0115
x1 = 0.421 | 0.0174
x1 = 0.465 | 0.0179
x1 = 0.475 | 0.0179
x1 = 0.561 | 0.0165
x1 = 0.698 | 0.00932
x1 = 0.76 | 0.00693

C1CCCCC1 [cyclohexane]
[1]
Conditions | vapor or sublimation pressure [kPa]
283.32 K | 6.389
288.28 K | 8.195
293.27 K | 10.42
298.25 K | 13.17
303.27 K | 16.45
313.24 K | 24.97
323.21 K | 36.72
333.21 K | 52.48
343.18 K | 72.98
353.14 K | 99.11

CCCCCCC [heptane]
[1]
Conditions | vapor or sublimation pressure [kPa]
263.45 K | 0.817
273.27 K | 1.548
283.21 K | 2.77
293.25 K | 4.772
303.15 K | 7.807
313.12 K | 12.41
323.1 K | 18.98
333.07 K | 28.13
343.04 K | 40.62
353.01 K | 57.56

Cc1ccccc1 [toluene]
[1]
Conditions | vapor or sublimation pressure
263.64 K | 0.484 kPa
273.47 K | 0.925 kPa
283.32 K | 1.68 kPa
293.24 K | 2.926 kPa
298.25 K | 3.803 kPa
303.21 K | 4.896 kPa
303.23 K | 4.896 kPa and 4.894 kPa
313.19 K | 7.872 kPa
313.22 K | 7.872 kPa
323.22 K | 12.25 kPa
333.2 K | 18.57 kPa
343.16 K | 27.2 kPa
